This note sets out measurements from patent US20100173930A1, “Certain Chemical Entities, Compositions and Methods” (priority 2006, published 2010).

In the assay the test system is SKM MYOFIBRIL
Briefly: SKM myofibril AC1.4 (ATPase, PK/LDH coupled enzyme system). Also: unit not given here. The format is biochemical. The settings on record: screen at pCa=6.5.
`Oc1ccc(-c2nc3ccccn3c2NCc2ccc(F)cc2F)cc1` [4-(3-{[(2,4-difluorophenyl)methyl]amino}-4-hydroimidazo[1,2-a]pyridin-2-yl)phenol]: the “SKM MYOFIBRIL AC1.4 (median)” value is 37.1035.

In the case of `COc1cccc2nc(O)c(-c3nc4cc(C)ccn4c3NCc3cccc(Cl)c3)cc12` [3-(3-{[(3-chlorophenyl)methyl]amino}-7-methyl(4-hydroimidazo[1,2-a]pyridin-2-yl))-5-methoxyquinolin-2-ol], the “SKM MYOFIBRIL AC1.4 (median)” value came to 2.3608.

Turning to `COc1ccccc1CNc1c(-c2ccccc2O)nc2cc(C)ccn12` [2-(3-{[(2-methoxyphenyl)methyl]amino}-7-methyl-4-hydroimidazo[1,2-a]pyridin-2-yl)phenol], the “SKM MYOFIBRIL AC1.4 (median)” value stood at 1.9683.

As to `COc1cccc(CNc2c(-c3ccccc3O)nc3cc(C)ccn23)c1` [2-(3-{[(3-methoxyphenyl)methyl]amino}-7-methyl-4-hydroimidazo[1,2-a]pyridin-2-yl)phenol], the “SKM MYOFIBRIL AC1.4 (median)” value came out at 10.2909.

On to `Cc1ccn2c(NC3CCCC3)c(-c3ccccc3O)nc2c1` [2-[3-(cyclopentylamino)-7-methyl-4-hydroimidazo[1,2-a]pyridin-2-yl]phenol], for which the “SKM MYOFIBRIL AC1.4 (median)” value was determined as 11.1785.

For `CC(C)(O)c1ccc2nc(-c3ccccc3O)c(NCc3ccc(F)cc3)n2c1` [2-(3-{[(4-fluorophenyl)methyl]amino}-6-(1-hydroxy-isopropyl)-4-hydroimidazo[1,2-a]pyridin-2-yl)phenol], the “SKM MYOFIBRIL AC1.4 (median)” value was 4.1299.

With `COc1ccc(-c2nc3cc(C)ccn3c2NCc2cccc(Cl)c2)c(O)c1` [2-(3-{[(3-chlorophenyl)methyl]amino}-7-methyl(4-hydroimidazo[1,2-a]pyridin-2-yl))-5-methoxyphenol], the “SKM MYOFIBRIL AC1.4 (median)” value amounted to 27.0817.

`Cc1ccn2c(NCC(=O)N3CCCCC3)c(-c3ccccc3O)nc2c1` [2-{[2-(2-hydroxyphenyl)-7-methyl(4-hydroimidazo[1,2-a]pyridin-3-yl)]amino}-1-piperidylethan-1-one]: the “SKM MYOFIBRIL AC1.4 (median)” value is 40.2086.

Take `C[C@H](Nc1c(-c2ccc(O)cc2)nc2ccccn12)c1ccccc1` [4-{3-[((1S)-1-phenylethyl)amino]-4-hydroimidazo[1,2-a]pyridin-2-yl}phenol]: the “SKM MYOFIBRIL AC1.4 (median)” value came out at 23.0212.

For `Oc1ccc(-c2nc3ccccn3c2NCc2ccccc2Cl)cc1` [4-(3-{[(2-chlorophenyl)methyl]amino}-4-hydroimidazo[1,2-a]pyridin-2-yl)phenol], the “SKM MYOFIBRIL AC1.4 (median)” value stood at 17.7003.

On to `Cc1ccn2c(NC3CCCCC3)c(-c3ccoc3)nc2c1` [cyclohexyl(2-(3-furyl)-7-methyl(4-hydroimidazo[1,2-a]pyridin-3-yl))amine], for which the “SKM MYOFIBRIL AC1.4 (median)” value is 30.5823.

In the case of `N#Cc1ccc2nc(-c3ccccc3O)c(NCc3cccc(Cl)c3)n2c1` [3-{[(3-chlorophenyl)methyl]amino}-2-(2-hydroxyphenyl)-4-hydroimidazo[1,2-a]pyridine-6-carbonitrile], the “SKM MYOFIBRIL AC1.4 (median)” value stood at 2.6805.

Take `Cc1ccc2cc(-c3nc4cc(C)ccn4c3NCc3cccc(Cl)c3)c(O)nc2c1` [3-(3-{[(3-chlorophenyl)methyl]amino}-7-methyl(4-hydroimidazo[1,2-a]pyridin-2-yl))-7-methylquinolin-2-ol]: the “SKM MYOFIBRIL AC1.4 (median)” value is recorded as 9.2086.

As for `Oc1ccccc1-c1nc2c(Br)cccn2c1NCc1cccc(Cl)c1` [2-(8-bromo-3-{[(3-chlorophenyl)methyl]amino}-4-hydroimidazo[1,2-a]pyridin-2-yl)phenol], the “SKM MYOFIBRIL AC1.4 (median)” value worked out at 13.2238.

Turning to `Cc1ccn2c(NC3CCCC3)c(-c3ccc(O)cc3)nc2c1` [4-[3-(cyclopentylamino)-7-methyl-4-hydroimidazo[1,2-a]pyridin-2-yl]phenol], the “SKM MYOFIBRIL AC1.4 (median)” value turned out to be 4.685.

On to `COc1ccc(-c2nc3ccc(C)cn3c2NC2CCCCC2)cc1O` [5-[3-(cyclohexylamino)-6-methyl(4-hydroimidazo[1,2-a]pyridin-2-yl)]-2-methoxyphenol], for which the “SKM MYOFIBRIL AC1.4 (median)” value turned out to be 6.0251.

For `Cc1ccc(-c2nc3ccccn3c2NC2CCCCC2)cc1` [cyclohexyl[2-(4-methylphenyl)(4-hydroimidazo[1,2-a]pyridin-3-yl)]amine], the “SKM MYOFIBRIL AC1.4 (median)” value is reported as 25.2334.

Take `CN(C)C(=O)c1ccc2nc(-c3ccccc3O)c(NCc3cccc(Cl)c3)n2c1` [(3-{[(3-chlorophenyl)methyl]amino}-2-(2-hydroxyphenyl)(4-hydroimidazo[1,2-a]pyridin-6-yl))-N,N-dimethylcarboxamide]: the “SKM MYOFIBRIL AC1.4 (median)” value was found to be 16.9244.

On to `CN(C)CCNC(=O)c1ccc2nc(-c3ccccc3O)c(NCc3cccc(Cl)c3)n2c1` [N-[2-(dimethylamino)ethyl](3-{[(3-chlorophenyl)methyl]amino}-2-(2-hydroxyphenyl)(4-hydroimidazo[1,2-a]pyridin-6-yl))carboxamide], for which the “SKM MYOFIBRIL AC1.4 (median)” value was determined as 2.2231.

Consider `CN(C)CCNC(=O)c1ccc2nc(-c3ccccc3O)c(NCc3ccc(F)cc3)n2c1` [N-[2-(dimethylamino)ethyl](3-{[(4-fluorophenyl)methyl]amino}-2-(2-hydroxyphenyl)(4-hydroimidazo[1,2-a]pyridin-6-yl))carboxamide], for which the “SKM MYOFIBRIL AC1.4 (median)” value is 4.4632.

Take `C[C@H](Nc1c(-c2ccc(O)cc2)nc2ccccn12)C(C)(C)C` [4-{3-[((1S)-1,2,2-trimethylpropyl)amino]-4-hydroimidazo[1,2-a]pyridin-2-yl}phenol]: the “SKM MYOFIBRIL AC1.4 (median)” value is reported as 11.8489.

`Cc1ccn2c(NCc3cccc(Cl)c3)c(-c3ccccc3O)nc2c1` [2-(3-{[(3-chlorophenyl)methyl]amino}-7-methyl-4-hydroimidazo[1,2-a]pyridin-2-yl)phenol]: the “SKM MYOFIBRIL AC1.4 (median)” value turned out to be 0.9522.

For `Cc1ccn2c(NCc3ccc(Cl)cc3)c(-c3ccccc3O)nc2c1` [2-(3-{[(4-chlorophenyl)methyl]amino}-7-methyl-4-hydroimidazo[1,2-a]pyridin-2-yl)phenol], the “SKM MYOFIBRIL AC1.4 (median)” value came to 3.3207.

In the case of `CNC(=O)c1ccc2nc(-c3ccccc3O)c(NCc3ccc(F)cc3)n2c1` [(3-{[(4-fluorophenyl)methyl]amino}-2-(2-hydroxyphenyl)(4-hydroimidazo[1,2-a]pyridin-6-yl))-N-methylcarboxamide], the “SKM MYOFIBRIL AC1.4 (median)” value is 1.8401.

Regarding `O=C(NCCO)c1ccc2nc(-c3ccccc3O)c(NCc3cccc(Cl)c3)n2c1` [(3-{[(3-chlorophenyl)methyl]amino}-2-(2-hydroxyphenyl)(4-hydroimidazo[1,2-a]pyridin-6-yl))-N-(2-hydroxyethyl)carboxamide], the “SKM MYOFIBRIL AC1.4 (median)” value is listed as 1.3334.

As for `Oc1ccc(-c2nc3ccc(F)cn3c2NC2CCCC2)cc1` [4-[3-(cyclopentylamino)-6-fluoro-4-hydroimidazo[1,2-a]pyridin-2-yl]phenol], the “SKM MYOFIBRIL AC1.4 (median)” value came out at 26.6981.

Regarding `Oc1ccc(-c2nc3cccc(Br)n3c2NC2CCCCC2)cc1` [4-[5-bromo-3-(cyclohexylamino)-4-hydroimidazo[1,2-a]pyridin-2-yl]phenol], the “SKM MYOFIBRIL AC1.4 (median)” value worked out at 21.5453.

Turning to `Fc1cccc(-c2nc3ccccn3c2NCc2cccc(Cl)c2)c1` [[(3-chlorophenyl)methyl][2-(3-fluorophenyl)(4-hydroimidazo[1,2-a]pyridin-3-yl)]amine], the “SKM MYOFIBRIL AC1.4 (median)” value came out at 43.8606.

Regarding `Cc1cn2c(NCc3cccc(Cl)c3)c(-c3ccccc3O)nc2cn1` [2-(3-{[(3-chlorophenyl)methyl]amino}-6-methyl-4-hydroimidazo[1,2-a]pyrazin-2-yl)phenol], the “SKM MYOFIBRIL AC1.4 (median)” value was found to be 3.6886.

In the case of `Oc1ccc(-c2nc3ccc(-c4ccccc4)cn3c2NCc2ccc(F)cc2)cc1` [4-(3-{[(4-fluorophenyl)methyl]amino}-6-phenyl-4-hydroimidazo[1,2-a]pyridin-2-yl)phenol], the “SKM MYOFIBRIL AC1.4 (median)” value was determined as 15.7257.

On to `Oc1ccc(-c2nc3cc(Cl)ccn3c2NCc2ccc(F)cc2)cc1` [4-(7-chloro-3-{[(4-fluorophenyl)methyl]amino}-4-hydroimidazo[1,2-a]pyridin-2-yl)phenol], for which the “SKM MYOFIBRIL AC1.4 (median)” value is listed as 10.9866.

Turning to `COCCNC(=O)c1ccc2nc(-c3ccccc3O)c(NCc3ccc(F)cc3)n2c1` [(3-{[(4-fluorophenyl)methyl]amino}-2-(2-hydroxyphenyl)(4-hydroimidazo[1,2-a]pyridin-6-yl))-N-(2-methoxyethyl)carboxamide], the “SKM MYOFIBRIL AC1.4 (median)” value stood at 4.3059.

`CC(C)(C)CC(C)(C)Nc1c(-c2ccc(O)cc2)nc2ccccn12` [4-{3-[(1,1,3,3-tetramethylbutyl)amino]-4-hydroimidazo[1,2-a]pyridin-2-yl}phenol]: the “SKM MYOFIBRIL AC1.4 (median)” value turned out to be 23.4246.

As to `COCCNC(=O)c1ccc2nc(-c3ccccc3O)c(NCc3cccc(Cl)c3)n2c1` [(3-{[(3-chlorophenyl)methyl]amino}-2-(2-hydroxyphenyl)(4-hydroimidazo[1,2-a]pyridin-6-yl))-N-(2-methoxyethyl)carboxamide], the “SKM MYOFIBRIL AC1.4 (median)” value is 2.0573.

`Oc1ccccc1-c1nc2ccccn2c1NCc1cccc(Cl)c1` [2-(3-{[(3-chlorophenyl)methyl]amino}-4-hydroimidazo[1,2-a]pyridin-2-yl)phenol]: the “SKM MYOFIBRIL AC1.4 (median)” value was found to be 4.2459.

As for `Oc1ccc(-c2nc3ccccn3c2NCc2ccc(Cl)cc2)cc1` [4-(3-{[(4-chlorophenyl)methyl]amino}-4-hydroimidazo[1,2-a]pyridin-2-yl)phenol], the “SKM MYOFIBRIL AC1.4 (median)” value stood at 21.4002.

As for `COc1ccc(-c2nc3ccccn3c2NC2CCCCC2)cc1` [cyclohexyl[2-(4-methoxyphenyl)(4-hydroimidazo[1,2-a]pyridin-3-yl)]amine], the “SKM MYOFIBRIL AC1.4 (median)” value turned out to be 16.6703.

As for `CCc1ccn2c(NC3CCCC3)c(-c3ccc(O)cc3)nc2c1` [4-[3-(cyclopentylamino)-7-ethyl-4-hydroimidazo[1,2-a]pyridin-2-yl]phenol], the “SKM MYOFIBRIL AC1.4 (median)” value is 7.5674.

Regarding `Cc1ccn2c(NCc3ccc(F)cc3)c(-c3ccc(O)cc3)nc2c1` [4-(3-{[(4-fluorophenyl)methyl]amino}-7-methyl-4-hydroimidazo[1,2-a]pyridin-2-yl)phenol], the “SKM MYOFIBRIL AC1.4 (median)” value is 44.5161.

With `Oc1ccc(-c2nc3ccc(-c4ccccc4)cn3c2NC2CCCC2)cc1` [4-[3-(cyclopentylamino)-6-phenyl-4-hydroimidazo[1,2-a]pyridin-2-yl]phenol], the “SKM MYOFIBRIL AC1.4 (median)” value is 22.1213.
